K m data for one molecule are collected here from paper PMC5624897, “Identification of isoliquiritigenin as an activator that stimulates the enzymatic production of glycyrrhetinic acid monoglucuronide” (Scientific Reports, 2017).

For this assay, the system named is T1, β-glucuronidase from P. purpurogenum Li-3 (PGUS).
T1 construct: native enzyme from mycelia of the fungus grown on GL; crude extract for kinetics, or ammonium sulfate and DEAE-cellulose
Put plainly: HPLC of GAMG formed; double reciprocal plot. The format is biochemical, Talaromyces purpureogenus. The note with it: control without ISL; crude β-glucuronidase solution, 2 h, 40 °C, sodium acetate buffer pH 5.0. The text has this:
HPLC of GAMG formed; double reciprocal plot on β-glucuronidase from P. purpurogenum Li-3 (PGUS)

The structures appear in SMILES notation.

As for `CC1(C)[C@@H](O[C@H]2O[C@H](C(=O)O)[C@@H](O)[C@H](O)[C@H]2O[C@@H]2O[C@H](C(=O)O)[C@@H](O)[C@H](O)[C@H]2O)CC[C@]2(C)[C@H]3C(=O)C=C4[C@@H]5C[C@@](C)(C(=O)O)CC[C@]5(C)CC[C@@]4(C)[C@]3(C)CC[C@@H]12` [GL, glycyrrhizin], the K m was 410 µM.
